# Like-named read-outs stand apart in the source and are kept apart here.
# Experiments:
# [1] = LD10; conditions: in vivo
# [2] = system: C6 cells; assay: C6 SRB growth assay; type: cell-based, rat; conditions: for IC50: read-out: C6 SRB IC50
# [3] = target: T1, FLK-1 (Mus musculus, UniProt P35918); assay: Receptor tyrosine kinase inhibition, FLK-1; type: cell-based; conditions: read-out: FLK-1 IC50
# T1 construct: expressed in transfected cells; host or cells: NIH3T3 mouse fibroblasts, retroviral vector
# T1 sequence (P35918 20-1345): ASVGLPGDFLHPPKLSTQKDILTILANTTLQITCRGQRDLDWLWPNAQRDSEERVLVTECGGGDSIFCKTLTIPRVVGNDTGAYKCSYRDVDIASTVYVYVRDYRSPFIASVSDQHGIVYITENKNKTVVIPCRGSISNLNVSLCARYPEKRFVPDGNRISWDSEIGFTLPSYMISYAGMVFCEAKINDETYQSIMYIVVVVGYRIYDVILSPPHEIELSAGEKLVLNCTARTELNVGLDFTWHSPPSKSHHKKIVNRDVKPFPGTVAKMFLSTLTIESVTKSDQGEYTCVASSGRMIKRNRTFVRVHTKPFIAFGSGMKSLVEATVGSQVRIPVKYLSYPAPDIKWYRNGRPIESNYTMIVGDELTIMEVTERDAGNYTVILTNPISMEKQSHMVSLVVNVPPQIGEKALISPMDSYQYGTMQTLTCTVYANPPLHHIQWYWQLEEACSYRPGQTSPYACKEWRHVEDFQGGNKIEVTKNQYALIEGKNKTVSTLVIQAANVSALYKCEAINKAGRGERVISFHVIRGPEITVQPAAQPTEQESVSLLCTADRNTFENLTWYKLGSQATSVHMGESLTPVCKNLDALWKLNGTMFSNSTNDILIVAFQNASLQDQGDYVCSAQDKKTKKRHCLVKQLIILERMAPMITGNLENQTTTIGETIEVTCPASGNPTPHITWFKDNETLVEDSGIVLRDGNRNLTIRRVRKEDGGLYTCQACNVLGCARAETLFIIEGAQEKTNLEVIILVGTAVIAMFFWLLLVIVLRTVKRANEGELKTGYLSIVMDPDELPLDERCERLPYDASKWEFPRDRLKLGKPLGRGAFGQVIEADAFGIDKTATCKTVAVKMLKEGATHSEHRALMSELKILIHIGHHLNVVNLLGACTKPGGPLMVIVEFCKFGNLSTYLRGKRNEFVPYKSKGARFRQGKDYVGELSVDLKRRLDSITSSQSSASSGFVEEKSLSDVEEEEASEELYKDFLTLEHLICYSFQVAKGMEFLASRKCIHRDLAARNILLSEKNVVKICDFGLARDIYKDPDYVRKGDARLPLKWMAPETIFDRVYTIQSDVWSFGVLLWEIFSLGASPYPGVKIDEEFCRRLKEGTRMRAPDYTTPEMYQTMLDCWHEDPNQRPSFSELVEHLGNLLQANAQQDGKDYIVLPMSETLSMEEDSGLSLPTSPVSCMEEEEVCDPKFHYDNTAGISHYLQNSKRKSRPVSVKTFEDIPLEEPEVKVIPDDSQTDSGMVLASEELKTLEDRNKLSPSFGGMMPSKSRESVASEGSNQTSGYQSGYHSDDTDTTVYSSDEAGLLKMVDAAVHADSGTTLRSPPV
# Experimental: (§1) For western blotting, cells were plated in 2 mL growth medium into 6-well dishes (500,000 cells per well) and allowed to attach overnight. The medium was replaced with 2 mL MCDB 105 (UCSF Cell Culture Facility) supplemented with 1% FBS. The plates were then incubated overnight at 37° C., ambient CO2. […] After a 7 min incubation at room temperature with ligand, the plates were put on ice and washed three times with 1 mL ice-cold PBS plus 1 mM orthovanadate. Lysis was achieved by pipetting cells in 0.5 mL of buffer containing 50 mM Tris, pH 7.4, 10% glycerol, 1% NP-40, 2 mM EDTA, 1 mM sodium vanadate (Na3 VO4), 10 mM pyrophosphate, 1 mM PMSF, […]. A 300 μL aliquot of each lysate was immediately added to 100 μL 4×Laemmli sample buffer ([…] Tris pH 6.9, 20% glycerol, 7% SDS, 5 mM EDTA, 5% β-mercaptoethanol) containing phosphatase inhibitors, 2 mM Na3 VO4 and 10 mM pyrophosphate. Samples were boiled for 5 min, frozen in dry ice-ethanol, and stored at -80° C. Proteins were resolved by SDS-PAGE (Bio-Rad Miniprotean II) and transferred to nitrocellulose membrane (Schleicher & Schuell) at 120 volts for 1 hr at room temperature in buffer containing 25 mM Tris pH 8.3, 20% methanol, 0.2 M glycine, 0.1% SDS. The integrity of the protein-to-membrane transfer was determined by staining with 1% Ponceau S in 5% acetic acid for 5 min. After destaining in several distilled water rinses, the membrane was soaked overnight in blocking buffer containing 5% milk in Tris-buffered saline, 0.05% Tween 20. Phosphotyresine was detected by incubating the membrane (1 hr at room temperature) with an anti-phosphotyosine antiserum diluted in blocking buffer at 1:3000. For C6 cells, PDGF-β receptor content in the lysates was confirmed in duplicate sample lanes by western blotting using an antibody specific for PDGF-β receptor (UBI). The antibodies were visualized using ECL reagent from Amersham and by exposure to Fuji RX film.
# (§2) For ELISA assays, cells were grown to 80-90% confluency in growth medium and seeded in 96-well tissue culture plates in 0.5% serum at 25,000 to 30,000 cells per well. After overnight incubation in 0.5% serum-containingmedium, cells were changed to serum-free medium and treated with test compound for 2 hr in a 5% CO2, 37° C. incubator. Cells were then stimulated with ligand for 5-10 min followed by lysis with HNTG (20 mM Hepes, 150 mM NaCl, 10% glycerol, 5 mM EDTA, 5 mM Na3 VO4 0.2% Triton X-100, and 2 mM NaPyr). Cell lysates (0.5 mg/well in PBS) were transferred to ELISA plates previously coated with receptor-specific antibody and which had been blocked with 5% milk in TBST (50 mM Tris-HCl pH 7.2, 150 mM NaCl and 0.1% Triton X-100) at room temperature for 30 min. Lysates were incubated with shaking for 1 hr at room temperature. The plates were washed with TBST four times and then incubated with polyclonol anti-phosphotyrosine antibody at room temperature for 30 min. Excess anti-phosphotyrosine antibody was removed by rinsing the plate with TBST four times. Goat anti-rabbit IgG antibody was added to the ELISA plate for 30 min at room temperature followed by rinsing with TBST four more times.
# (§3) The ability of different compound to inhibit different receptor tyrosine kinases was tested.
# [4] = target: PDGFR (Homo sapiens, UniProt P09619); assay: Receptor tyrosine kinase inhibition, PDGFR; type: cell-based; set-up: U1242 (PDGF-β receptor); host or cells: U1242 glioma cells (ELISA); conditions: read-out: PDGFR IC50
# Chain of PDGFR (Homo sapiens, UniProt P09619) (P09619 33-1106): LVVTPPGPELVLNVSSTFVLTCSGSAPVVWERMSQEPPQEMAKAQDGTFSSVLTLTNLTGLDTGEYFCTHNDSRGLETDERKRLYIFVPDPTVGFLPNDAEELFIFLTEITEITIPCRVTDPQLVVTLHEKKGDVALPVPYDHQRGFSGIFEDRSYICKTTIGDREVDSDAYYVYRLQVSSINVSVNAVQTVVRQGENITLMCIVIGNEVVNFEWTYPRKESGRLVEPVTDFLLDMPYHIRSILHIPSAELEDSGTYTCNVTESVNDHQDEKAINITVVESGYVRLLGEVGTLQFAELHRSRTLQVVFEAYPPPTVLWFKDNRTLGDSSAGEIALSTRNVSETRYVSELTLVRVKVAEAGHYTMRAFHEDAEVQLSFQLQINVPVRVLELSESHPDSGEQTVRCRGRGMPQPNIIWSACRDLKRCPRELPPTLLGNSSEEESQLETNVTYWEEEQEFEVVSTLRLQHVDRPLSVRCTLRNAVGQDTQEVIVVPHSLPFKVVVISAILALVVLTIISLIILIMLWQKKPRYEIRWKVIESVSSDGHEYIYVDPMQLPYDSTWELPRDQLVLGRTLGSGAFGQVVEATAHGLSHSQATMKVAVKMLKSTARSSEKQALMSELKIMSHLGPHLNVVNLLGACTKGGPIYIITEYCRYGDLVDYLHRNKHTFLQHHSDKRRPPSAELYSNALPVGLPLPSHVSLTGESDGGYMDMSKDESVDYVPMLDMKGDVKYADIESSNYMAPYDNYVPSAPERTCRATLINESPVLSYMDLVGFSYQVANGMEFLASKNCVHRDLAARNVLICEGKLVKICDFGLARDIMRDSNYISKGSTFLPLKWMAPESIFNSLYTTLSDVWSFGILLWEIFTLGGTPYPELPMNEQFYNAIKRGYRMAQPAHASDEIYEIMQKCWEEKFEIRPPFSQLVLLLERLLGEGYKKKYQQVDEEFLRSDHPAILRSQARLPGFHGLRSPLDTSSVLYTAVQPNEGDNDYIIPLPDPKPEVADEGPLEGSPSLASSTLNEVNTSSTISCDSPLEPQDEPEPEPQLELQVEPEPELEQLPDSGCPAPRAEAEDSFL
# Experimental: as §1, with “The medium was replaced with 2 mL MCDB 105 (UCSF Cell Culture Facility) supplemented with 1% FBS.” left out, “Proteins were resolved by SDS-PAGE (Bio-Rad Miniprotean II) and transferred to nitrocellulose membrane (Schleicher & Schuell) at 120 volts for 1 hr at room temperature in buffer containing 25 mM Tris pH 8.3, 20% methanol, 0.2 M glycine, 0.1% SDS.” left out, “For C6 cells, PDGF-β receptor content in the lysates was confirmed in duplicate sample lanes by western blotting using an antibody specific for PDGF-β receptor (UBI).” left out
# (§4) For ELISA assays, cells were grown to 80-90% confluency in growth medium and seeded in 96-well tissue culture plates in 0.5% serum at 25,000 to 30,000 cells per well. After overnight incubation in 0.5% serum-containingmedium, cells were changed to serum-free medium and treated with test compound for 2 hr in a 5% CO2, 37° C. incubator. […] Lysates were incubated with shaking for 1 hr at room temperature. The plates were washed with TBST four times and then incubated with polyclonol anti-phosphotyrosine antibody at room temperature for 30 min. Excess anti-phosphotyrosine antibody was removed by rinsing the plate with TBST four times. Goat anti-rabbit IgG antibody was added to the ELISA plate for 30 min at room temperature followed by rinsing with TBST four more times.
# as §3
# [5] = system: HER2; assay: Receptor tyrosine kinase inhibition, HER2; type: cell-based; conditions: read-out: HER2 IC50
# Experimental: as §1, §2, §3
# [6] = target: T2, EGFR (Homo sapiens, UniProt P00533); assay: Receptor tyrosine kinase inhibition, EGFR; type: cell-based; conditions: read-out: EGFR ID50
# T2 construct: expressed in transfected cells; host or cells: NIH3T3 mouse fibroblasts, retroviral vector
# T2 sequence (P00533 25-1210): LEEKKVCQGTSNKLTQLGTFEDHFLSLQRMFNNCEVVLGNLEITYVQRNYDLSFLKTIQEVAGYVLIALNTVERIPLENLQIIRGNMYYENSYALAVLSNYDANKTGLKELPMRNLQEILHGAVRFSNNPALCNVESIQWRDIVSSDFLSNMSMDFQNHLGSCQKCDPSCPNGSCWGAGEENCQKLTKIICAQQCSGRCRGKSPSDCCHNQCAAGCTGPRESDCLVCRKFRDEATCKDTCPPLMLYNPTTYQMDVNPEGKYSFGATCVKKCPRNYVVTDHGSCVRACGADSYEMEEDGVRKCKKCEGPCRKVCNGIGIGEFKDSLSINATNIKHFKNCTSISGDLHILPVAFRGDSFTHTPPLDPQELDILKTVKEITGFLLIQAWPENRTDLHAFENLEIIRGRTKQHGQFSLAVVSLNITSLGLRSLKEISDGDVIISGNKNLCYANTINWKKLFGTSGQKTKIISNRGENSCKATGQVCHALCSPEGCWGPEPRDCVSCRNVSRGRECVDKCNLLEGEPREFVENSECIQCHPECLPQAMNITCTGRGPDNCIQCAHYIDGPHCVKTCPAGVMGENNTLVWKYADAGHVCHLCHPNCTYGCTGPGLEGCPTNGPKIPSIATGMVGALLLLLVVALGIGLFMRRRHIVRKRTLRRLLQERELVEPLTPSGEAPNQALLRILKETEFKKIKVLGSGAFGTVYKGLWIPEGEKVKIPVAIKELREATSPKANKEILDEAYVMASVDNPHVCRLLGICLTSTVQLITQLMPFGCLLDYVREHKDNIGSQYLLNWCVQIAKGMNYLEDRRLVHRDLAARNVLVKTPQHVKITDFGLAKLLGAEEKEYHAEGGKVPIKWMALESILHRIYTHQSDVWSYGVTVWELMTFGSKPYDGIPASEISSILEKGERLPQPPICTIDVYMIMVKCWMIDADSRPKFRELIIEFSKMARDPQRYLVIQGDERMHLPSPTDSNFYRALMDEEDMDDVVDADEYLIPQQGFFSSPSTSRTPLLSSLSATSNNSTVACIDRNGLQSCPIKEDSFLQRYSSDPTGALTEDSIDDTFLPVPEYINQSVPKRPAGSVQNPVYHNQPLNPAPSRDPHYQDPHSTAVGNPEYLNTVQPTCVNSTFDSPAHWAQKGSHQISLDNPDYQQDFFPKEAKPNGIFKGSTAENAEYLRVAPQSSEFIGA
# Experimental: as §1, §2, §3
# [7] = target: T3, PDGF-R (U1242) (Homo sapiens, UniProt P09619); assay: U1242 kinase (PDGF-R activity); type: cell-based
# T3 construct: U1242 (PDGF-β receptor); host or cells: U1242 MG glioma cells
# T3 sequence (P09619 33-1106): as the sequence (P09619 33-1106) above
# Experimental: as §1, with “The medium was replaced with 2 mL MCDB 105 (UCSF Cell Culture Facility) supplemented with 1% FBS.” left out, “Proteins were resolved by SDS-PAGE (Bio-Rad Miniprotean II) and transferred to nitrocellulose membrane (Schleicher & Schuell) at 120 volts for 1 hr at room temperature in buffer containing 25 mM Tris pH 8.3, 20% methanol, 0.2 M glycine, 0.1% SDS.” left out, “For C6 cells, PDGF-β receptor content in the lysates was confirmed in duplicate sample lanes by western blotting using an antibody specific for PDGF-β receptor (UBI).” left out
# as §4
# PDGF-R activity, C6 SRB, and in vivo efficacy were measured using the procedures described in the appendices above.
# [8] = system: PDGFR; assay: Receptor tyrosine kinase inhibition, PDGFR; type: cell-based; conditions: W = done in Western assay; read-out: PDGFR IC50 (W)
# Experimental: as §1, with “The medium was replaced with 2 mL MCDB 105 (UCSF Cell Culture Facility) supplemented with 1% FBS.” left out, “Proteins were resolved by SDS-PAGE (Bio-Rad Miniprotean II) and transferred to nitrocellulose membrane (Schleicher & Schuell) at 120 volts for 1 hr at room temperature in buffer containing 25 mM Tris pH 8.3, 20% methanol, 0.2 M glycine, 0.1% SDS.” left out, “For C6 cells, PDGF-β receptor content in the lysates was confirmed in duplicate sample lanes by western blotting using an antibody specific for PDGF-β receptor (UBI).” left out
# as §4, §3
# [9] = system: C6 glioma cells; assay: C6 glioma SC xenograft in mice; type: in vivo
# Experimental: (§5) Cell lines were grown in appropriate medium (see Appendix 1). Cells were harvested at or near confluency with 0.05% Trypsin-EDTA and pelleted at 450×g for 10 min. Pellets were resuspended in sterile PBS or media (without FBS) to a particular concentration and the cells were implanted into the hindflank of mice. Tumor growth was measured over 3 to 6 weeks using venier calipers. Tumor volumes were calculated as a product of length×width×height unless otherwise indicated. P values were calculated using the Students' t-test.
# (§6) C6 and SKOV-3(T) cells were grown in culture, as described in "cell growth" above, and implanted into the hind flank of a female Balb/c nu/nu mouse at 3×10^6 cells (for C6 experiments), or 1×10^7 cells (for SKOV-3 experiments) in […] of PBS on Day 0. U87MG, U118MG or U373MG human glioblastoma cells (obtained from the ATCC), or A4312 were also implanted into athymic mice. […] Tumors were measured using venier calipers and tumor volume was calculated as a product of tumor length, width, and height.
# [10] = C6 glioma SC xenograft in mice; type: in vivo; conditions: rat, in vivo, ip
# Experimental: as §5, §6
SMILES,LD10 [1],"IC50 ([2]; Rattus norvegicus, C6)",IC50 [3],IC50 [4],IC50 [5],IC50 [6],IC50 ([7]; read-out: U1242 KINASE IC50),further results
"Cc1noc(C)c1C(=O)Nc1ccc(C(F)(F)F)cc1 [Compound A13, N-trifluoromethlyphenyl 3,5-dimethylisoxazole-4-carboxamide]",> 200 mg/kg,> 25 µM,–,–,–,–,–,"inhibition at 25 µM ([2]; Rattus norvegicus, C6, at 25 μM): ~30%"
CN(C)CCn1cc(C=C(C#N)c2[nH]nc(N)c2C#N)c2ccccc21 [Compound D18],–,–,> 50 µM,34 µM,> 50 µM,> 50 µM,–,–
N#CC(=Cc1c[nH]c2ccccc12)c1c(C#N)c(N)nn1-c1ccccc1 [Compound D20],–,–,> 50 µM,14 µM,> 50 µM,> 50 µM,–,–
Cc1cc2nc(C(=O)O)c(-c3ccccc3)nc2cc1C [Compound G25],–,50 µM,> 50 µM,0.9 µM,> 50 µM,> 50 µM,1 µM,–
"Cc1cc2ncc(-c3ccc([N+](=O)[O-])cc3)nc2cc1C [Compound G27, 2-(4-nitrophenyl) 6.7 dimethylquinoxaline]",–,–,> 50 µM,48 µM,> 50 µM,> 100 µM,–,–
Cc1cc2ncc(Nc3cccc(I)c3)nc2cc1C [Compound G29],–,> 13 µM,10 µM,23 µM,34 µM,< 0.8 µM,23.2 µM,–
Cc1cc2ncc(Nc3ccc(I)cc3)nc2cc1C [Compound G30],–,2 µM,10 µM,32 µM,34 µM,> 100 µM,32.5 µM,–
CC1c2nc3ccccc3c(=O)n2C(c2ccc(O)c(O)c2)N1Cc1ccccc1 (stereo not drawn) [Compound H10],75 mg/kg,13 µM,> 50 µM,–,–,–,> 50 µM,"IC50 [8]: 25 µM; IC50 ([7]; W = done in Western assay, read-out: U1242 KINASE IC50 (W)): 25 µM; inhibition in vivo at 30 mg/kg ([9]; Rattus norvegicus, C6 glioma, sc, at 30 mg/kg, read-out: C6 in vivo EFFICACY): 52%; mortality at 408 h ([10]; 30 mg/kg, at d17): 14.3%"
CC1c2nc3ccccc3c(=O)n2C(c2ccc(O)cc2)N1Cc1ccccc1 (stereo not drawn) [Compound H13],> 400 mg/kg,20 µM,–,–,–,–,> 50 µM,"IC50 [2]: 10.5 µM; inhibition in vivo at 40 mg/kg ([9]; Rattus norvegicus, C6 glioma, sc, at 40 mg/kg, read-out: C6 in vivo EFFICACY): 0%; inhibition in vivo at 100 mg/kg ([9]; Rattus norvegicus, C6 glioma, sc, at 100 mg/kg, read-out: C6 in vivo EFFICACY): 41%; mortality ([10]; 40 mg/kg (J10 at d18, G24 at d15)): 0%; mortality at 192 h ([10]; 100 mg/kg (E15 at d8)): 0%"
N#CCS(=O)(=O)C(C#N)=Cc1cc(O)c(O)c(Br)c1 [Compound J11],–,14 µM,> 25 µM,3 µM,> 50 µM,> 100 µM,3.1 µM,–
COc1cc2ncnc(Nc3ccccc3)c2cc1OC [Compound P14],–,–,> 200 µM,26 µM,10 µM,> 50 µM,–,–
COCCCN1C(=O)SC(=Cc2ccccc2Cl)C1=O [Compound P15],–,–,> 50 µM,46 µM,> 50 µM,> 100 µM,–,–
COc1cc(C=C(C#N)C(=O)NCCCc2ccccc2)cc(I)c1O [Compound P16],> 400 mg/kg,17 µM,–,–,–,–,–,C6 in vivo EFFICACY ([9]; at 60 mg/kg): no effect; mortality at 240 h ([10]; 60 mg/kg (G24 at d10)): 0%
COc1cc2ncnc(N3CCc4ccccc43)c2cc1OC [Compound P17],> 100 mg/kg,12 µM,–,–,–,–,–,–
